Experiments:
DSS colitis mouse model = assay: Dextran sodium sulfate (DSS)-induced ulcerative colitis mouse model; format: in vivo, C57BL/6 mice; conditions: oral once a day Day 0 to Day 6, 2% DSS drinking water
Experimental: Adult C57BL/6 mice were used in this assay. The day on which 2% DSS drinking water started was defined as Day 0. A DSS solution was placed in a transparent plastic water bottle, and the mice were allowed to freely drink from Day 0 to Day 7 via a metal nozzle to induce ulcerative colitis. The test substance was orally administered once a day at a dose of 10 mL/kg for 7 days from Day 0 to Day 6. Stool conditions were observed every day from Day 0 to Day 7, and a disease activity index (DAI) was evaluated according to a reference score (Diarrhea score 0: normal stool, 1: loose stool, 2: diarrhea stool, 3: watery stool. Bloody stool score 0: normal stool, 1: brown mild bloody stool, 2: reddish color in stool, 3: melena); DAI score = diarrhea score + bloody stool score […].
The compounds of the present disclosure were tested in this assay. Efficacy in this model is evidenced by a decrease in the DAI score when compared to that of vehicle-treated animals (control group).

[1] = system: monkey circulatory organ (blood pressure and heart rate); assay: Monkey po telemetry test (blood pressure and heart rate); conditions: for safety margin (dose basis): monkey no observed effect level compared with the effective amount in the mouse model of DSS-induced colitis; for no observed effect level on the monkey circulatory organ (blood pressure and heart rate): single oral administration, unrestrained, awake cynomolgus monkeys
Experimental: Regarding an action on the monkey circulatory organ under unrestrained conditions and awakening, the test substance was orally administered once to male cynomolgus monkeys (2 animals/dose) implanted with a telemetry transmitter (M11, Data Sciences International, Inc.), and blood pressure (systolic, diastolic, and mean blood pressure) and heart rate were continuously measured. The evaluation time point was set to before administration, 0.5, 1, 2, 4, 8, 10, 12, 16, or 24 hours after administration, and the average value for 1 minute at the evaluation time point was analyzed.

[2] = system: rat circulatory organ (blood pressure and heart rate); assay: Rat po circulatory organ evaluation test (blood pressure and heart rate); conditions: for safety margin (dose basis): rat no observed effect level compared with the effective amount in the mouse model of DSS-induced colitis; for no observed effect level on the rat circulatory organ (blood pressure and heart rate): single oral administration, unrestrained, awake rats
Text: Regarding an action on the rat circulatory organ under unrestrained conditions and awakening, the test substance was orally administered once to Crl:CD (SD) male rats (4 animals/group) implanted with a telemetry transmitter (HD-S10, Data Sciences International, Inc.) or catheterized in the left carotid artery, and blood pressure (systolic, diastolic, and mean blood pressure) and heart rate were continuously measured.

| SMILES | suppression of the control group score (DAI score) (DSS colitis mouse model; 0.3 mpk) | safety margin (dose basis) [1] | no observed effect level on the monkey circulatory organ (blood pressure and heart rate) [1] | safety margin (dose basis) [2] | no observed effect level on the rat circulatory organ (blood pressure and heart rate) [2] | suppression of the control group score (DAI score) (DSS colitis mouse model; 3 mpk) | suppression of the control group score (DAI score) (DSS colitis mouse model; 1 mpk) |
| --- | --- | --- | --- | --- | --- | --- | --- |
| O=C(O)c1csc(SCCN2C(=O)CC[C@@H]2/C=C/[C@@H](O)CCCCCSc2ccccn2)n1 [Example 1, 2-[(2-{(2R)-2-[(1E,3S)-3-Hydroxy-8-(2-pyridinylthio)-1-octen-1-yl]-5-oxo-1-pyrrolidinyl}ethyl)thio]-1,3-thiazole-4-carboxylic acid] | 50% |  |  |  |  |  |  |
| CN(CCCCC[C@H](O)/C=C/[C@H]1CCC(=O)N1CCSc1nc(C(=O)NCCS(=O)(=O)O)cs1)c1ccccc1 [2-({[2-({2-[(2R)-2-{(1E,3S)-3-Hydroxy-8-[methyl(phenyl)amino]-1-octen-1-yl}-5-oxo-1-pyrrolidinyl]ethyl}thio)-1,3-thiazol-4-yl]carbonyl}amino)ethanesulfonic acid] | 50% | 10 times | 3 mg/kg | 100 times | 30 mg/kg |  |  |
| COc1nccnc1SCCCCC[C@H](O)/C=C/[C@H]1CCC(=O)N1CCSc1nc(C(=O)NCCS(=O)(=O)O)cs1 [Example 12] |  | 10 times | 30 mg/kg | 10 times | 30 mg/kg | 50% |  |
| CN(CCCCC[C@H](O)/C=C/[C@H]1CCC(=O)N1CCSc1nc(C(=O)O)cs1)c1ccccc1 [Example 2, 2-({2-[(2R)-2-{(1E,3S)-3-Hydroxy-8-[methyl(phenyl)amino]-1-octen-1-yl}-5-oxo-1-pyrrolidinyl]ethyl}thio)-1,3-thiazole-4-carboxylic acid] | 50% |  |  |  |  |  |  |
| O=C(NCCS(=O)(=O)O)c1csc(SCCN2C(=O)CC[C@@H]2/C=C/[C@@H](O)CCCCCSc2ccccn2)n1 [Example 11, 2-[({2-[(2-{(2R)-2-[(1E,3S)-3-Hydroxy-8-(2-pyridinylthio)-1-octen-1-yl]-5-oxo-1-pyrrolidinyl}ethyl)thio]-1,3-thiazol-4-yl}carbonyl)amino]ethanesulfonic acid] | 50% | 1 times | 0.3 mg/kg | 100 times | 30 mg/kg |  |  |
| O=C(O)CCCSCCN1C(=O)CC[C@@H]1/C=C/[C@@H](O)Cc1cccc(NC(=O)c2ccccc2)c1 [Example 10, 4-({2-[(2R)-2-{(1E,3S)-4-[3-(Benzoylamino)phenyl]-3-hydroxy-1-buten-1-yl}-5-oxo-1-pyrrolidinyl]ethyl}thio)butanoic acid] |  |  |  |  |  |  | 50% |
| O=C(CCCSCCN1C(=O)CC[C@@H]1/C=C/[C@@H](O)Cc1cccc(NC(=O)c2ccccc2)c1)NCCS(=O)(=O)O [2-{[4-({2-[(2R)-2-{(1E,3S)-4-[3-(Benzoylamino)phenyl]-3-hydroxy-1-buten-1-yl}-5-oxo-1-pyrrolidinyl]ethyl}thio)butanoyl]amino}ethanesulfonic acid] |  |  |  | 10 times | 30 mg/kg | 50% |  |

— EP4818154A1, “EP4 AGONIST” (ONO Pharmaceutical Co., Ltd., priority 2023, dated 2025)
